From patent US11536729B2, “Method of identifying novel protein aggregation inhibitors based on chemical kinetics” (Cambridge Enterprise Limited, priority 2016, dated 2022) come the findings set out here.

What all share (type): biochemical
In experiment [1] the target is T1, Aβ42 (Homo sapiens, UniProt P05067).
T1 construct: The recombinant Aβ (M1-42) peptide; made in house; host or cells: E. coli BL21 Gold (DE3)
Put plainly: ThT-based Aβ42 aggregation kinetics under quiescent (unseeded) conditions. Conditions: for ranking of efficacy within set: 2 μM Aβ42; for change of inhibitory activity relative to parent scaffold: structural comparison among RAR/RXR modulators. The procedure:
Solutions of monomeric peptides were prepared by dissolving the lyophilized Aβ42 peptide in 6 M GuHCl. Monomeric forms were purified from potential oligomeric species and salt using a Superdex 75 10/300 GL column (GE Healthcare) at a flowrate of 0.5 mL/min, and were eluted in 20 mM sodium phosphate buffer, pH 8 supplemented with 200 μM EDTA and 0.02% NaN3. The center of the peak was collected and the peptide concentration was determined from the absorbance of the integrated peak area using ε280=1400 l mol^−1 cm^−1. The obtained monomer was diluted with buffer to the desired concentration and supplemented with 20 μM Thioflavin T (ThT) from a 1 mM stock. All samples were prepared in low binding eppendorf tubes on ice using careful pipetting to avoid introduction of air bubbles. Each sample was then pipetted into multiple wells of a 96-well half-area, low-binding, clear bottom and PEG coating plate (Corning 3881), 80 μL per well.
We verified that the addition of 1% DMSO in the reaction mixture has no effect on Aβ42 aggregation.
Assays were initiated by placing the 96-well plate at 37° C. under quiescent conditions in a plate reader (Fluostar Omega, Fluostar Optima or Fluostar Galaxy, BMGLabtech, Offenburg, Germany). The ThT fluorescence was measured through the bottom of the plate with a 440 nm excitation filter and a 480 nm emission filter. The ThT fluorescence was followed for three repeats of each sample.
The time evolution of the total fibril mass concentration, M(t), is described by the following integrated rate law (30, 32)
[formula] where the kinetic parameters B±, C±, κ, κ∞ and ? are functions of the two ? combinations of the microscopic rate constants k+k2 and knk2, where kn, k+ and k2 are the primary nucleation, elongation and secondary nucleation rate constants, respectively.
The time evolution of the total fibril mass concentration, M(t), is described by the following integrated rate law
[formula] where the kinetic parameters B±, C±, κ, κ∞ and ? are functions of the two combinations of the microscopic rate constants k+k2 and knk2, where kn, k+ and k2 are the primary nucleation, elongation and secondary nucleation rate constants, respectively. Aβ42 alone in 1% DMSO was first modeled to obtain the k+k2 and knk2 combined microscopic rate constants.
With the introduction of different small molecules, the aggregation process can be inhibited by one or more individual microscopic reactions. Microscopic rate constants k+k2 and knk2 were obtained in the presence of the molecules, and compared to the initial values of Aβ42 alone. This comparison allows one to understand which rate was mainly perturbed, as well as the potency of the compounds (by relative changes of their microscopic rates) with respect to each other.
Target sequence in this assay (P05067 671-713): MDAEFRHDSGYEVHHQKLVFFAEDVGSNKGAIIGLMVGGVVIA

Experiment [2] has as its target T1, Aβ42. In words: ThT Aβ42 aggregation kinetics with 10% pre-formed fibril seeds (elongation dominant). Conditions: 2 μM Aβ42, 5-fold excess. The procedure:
(§1) Samples were then collected from the wells into low-binding tubes and sonicated for 2 min in a sonicator bath at room temperature. Under the considered conditions (i.e. 4 μM Aβ42), the monomer concentration is negligible at equilibrium (31). The final concentration of fibrils, in monomer equivalents, was considered equal to the initial concentration of monomer. Fibrils were then added to freshly prepared monomer in order to reach either 5% or 10% fibrils final concentration.
(§2) Assays were initiated by placing the 96-well plate at 37° C. under quiescent conditions in a plate reader (Fluostar Omega, Fluostar Optima or Fluostar Galaxy, BMGLabtech, Offenburg, Germany). The ThT fluorescence was measured through the bottom of the plate with a 440 nm excitation filter and a 480 nm emission filter. The ThT fluorescence was followed for three repeats of each sample. […]
Target sequence in this assay (P05067 672-713 limits assumed): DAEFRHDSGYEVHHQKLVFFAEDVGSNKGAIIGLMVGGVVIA

For experiment [3], the target named is T1, Aβ42. Put plainly: ThT Aβ42 aggregation kinetics with 1-5% pre-formed fibril seeds (surface-catalyzed secondary nucleation). Conditions: 2 μM Aβ42, 1-5% seeds, 0.5-fold excess. The procedure: For the seeded experiments, preformed fibrils were prepared just prior to the experiment. Kinetic experiments were set up just as above for a […] Aβ42 samples in 20 mM sodium phosphate buffer, pH 8 with 200 μM EDTA, 0.02% NaN3 and 20 μM ThT. The ThT fluorescence was monitored for 3 hours to verify the formation of fibrils.
as §1, §2
Target sequence in this assay (P05067 672-713 limits assumed): as above
For the seeded experiments, preformed fibrils were prepared just prior to the experiment. […] The ThT fluorescence was monitored for 3 hours to verify the formation of fibrils. […]

`CC1(C)CCC(C)(C)c2cc(NC(=O)c3ccc(C(=O)O)cc3)ccc21` [Tamibarotene]: the “effect on Aβ42 aggregation of linker variants of bexarotene” value (shortened to “effect … of bexarotene”) in experiment [1] is “delayed the aggregation of Aβ42 to different extent”.
`CC1(C)CCC(C)(C)c2cc(C3(c4ccc5cc(C(=O)O)ccc5c4)SCCS3)ccc21` [MM11253]: in experiment [1], the “ranking of efficacy within set” value is “most effective molecules within Set C”.
For the compound `CCCCCOc1cc2c(cc1-c1cc(/C=C/C(=O)O)ccc1O)C(C)(C)CCC2(C)C` [UVI3003], the “ranking of efficacy within set” value in experiment [1] is given as “most effective molecule within Set B”. Further, the “effect on aggregation kinetics / elongation with 10% fibril seeds” value in experiment [2] was “no effect could be observed”. Also, the “decrease of rate of surface-catalyzed secondary nucleation (k2)” value in experiment [3] came to 75%.
On to `COc1ccc(-c2ccc3cc(C(=O)O)ccc3c2)cc1C12CC3CC(CC(C3)C1)C2` [Adapalene], for which the “ranking of efficacy within set” value in experiment [1] is “most effective molecules within Set C”.
Take `CC1(C)CC=C(c2cnc3ccccc3c2)c2cc(C(=O)Nc3ccc(C(=O)O)cc3)ccc21` [BMS195614]: in experiment [1], the “change of inhibitory activity relative to parent scaffold” value was “substantial increase in primary nucleation inhibitory activity”.
Turning to `CC1(C)C(=O)C(C)(C)c2cc(C(=O)Nc3ccc(C(=O)O)cc3)ccc21` [BMS753], the “delay / effect on Aβ42 aggregation” value in experiment [1] (2 μM Aβ42, 3-fold excess) is “did not show any effect”. Besides, the “effect on aggregation kinetics of Aβ42” value in experiment [1] (fold-excesses as high as 5) is “did not show any effect”.
Regarding `CC1(C)CC=C(C#Cc2ccccc2)c2cc(/C=C/c3ccc(C(=O)O)cc3)ccc21` [BMS493], the “change of inhibitory activity relative to parent scaffold” value in experiment [1] was “same effect”.
Regarding `CC1(C)CCC(C)(C)c2cc(C3(c4ccc(C(=O)O)cc4)OCCO3)ccc21` [SR11237], the “effect … of bexarotene” value in experiment [1] is listed as “delayed the aggregation of Aβ42 to different extent”.
`C/C(=C\c1ccc(C(=O)O)cc1)c1ccc2c(c1)C(C)(C)CCC2(C)C` [TTNPB]: in experiment [1], the “effect … of bexarotene” value is on record as “delayed the aggregation of Aβ42 to different extent” and the “change of inhibitory activity relative to parent scaffold” value was “increase in inhibitory activity”.
Consider `NCCCS(=O)(=O)O` [tramiprosate], for which the “effect on Aβ42 aggregation” value in experiment [1] (even when present in 20-fold excess) is “no effects”.
